{
  "source": "ChEMBL document CHEMBL5729785",
  "about": "“Pyridazinones as PARP7 inhibtors” (2023)",
  "molecular_target": "T1, Protein mono-ADP-ribosyltransferase TIPARP (Homo sapiens, UniProt Q7Z3E1)",
  "T1 sequence (Q7Z3E1 whole entry)": "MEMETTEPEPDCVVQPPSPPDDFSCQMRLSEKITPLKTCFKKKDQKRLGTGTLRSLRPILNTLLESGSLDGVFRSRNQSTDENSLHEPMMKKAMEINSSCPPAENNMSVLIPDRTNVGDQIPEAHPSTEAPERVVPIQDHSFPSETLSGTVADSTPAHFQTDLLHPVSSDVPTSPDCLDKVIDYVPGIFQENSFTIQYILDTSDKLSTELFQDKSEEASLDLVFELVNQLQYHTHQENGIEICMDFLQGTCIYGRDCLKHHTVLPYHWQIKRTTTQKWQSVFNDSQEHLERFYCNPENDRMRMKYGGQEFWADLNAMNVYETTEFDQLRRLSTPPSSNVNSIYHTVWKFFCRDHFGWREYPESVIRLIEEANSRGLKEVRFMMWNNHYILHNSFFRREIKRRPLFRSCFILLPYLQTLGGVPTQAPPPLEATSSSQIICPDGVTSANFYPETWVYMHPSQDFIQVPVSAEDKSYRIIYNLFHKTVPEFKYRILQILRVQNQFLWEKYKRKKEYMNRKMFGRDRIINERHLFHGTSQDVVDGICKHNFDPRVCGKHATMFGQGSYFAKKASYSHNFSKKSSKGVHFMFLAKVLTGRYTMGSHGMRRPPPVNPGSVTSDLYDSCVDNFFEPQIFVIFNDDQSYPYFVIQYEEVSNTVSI",
  "experiment": "Enzymatic Assay: Displacement of Probe A, a biotinylated probe binding to the TIPARP active site, was measured using a time-resolved fluorescence energy transfer (TR-FRET) assay. 20 nL of a dose response curve of each test compound was spotted in black 384-well polystyrene proxiplates (Perkin Elmer) using a Mosquito (TTP Labtech). Reactions were performed in a 8 μl volume by adding 6 μL of TIPARP and Probe A in assay buffer (20 mM HEPES pH=8, 100 mM NaCl, 0.1% bovine serum albumin, 2 mM DTT and 0.002% Tween20), incubating with test compound at 25° C. for 30 min, then adding 2 μL of ULight-anti 6×His and LANCE Eu-W1024 labeled streptavidin (Perkin Elmer). The final concentrations of TIPARP and Probe A were 6 nM and 2 nM, respectively. The final concentration of ULight-anti 6×His and LANCE Eu-W1024 labeled streptavidin were 4 nM and 0.25 nM, respectively. Reactions were incubated at 25° C. for an additional 30 min, then read on an Envision platereader equipped with a LANCE/DELFIA top mirror (Perkin Elmer) using excitation of 320 nm and emission of 615 nm and 665 nM with a […]. The ratio of the 665/615 nm emission were calculated for each well to determine the amount of complex of TIPARP and Probe Ain each well. […]",
  "data": [
    {"smiles": "C[C@@H](CO[C@@H]1CCN(C2CCN(c3ncc(Br)cn3)CC2)C1=O)Nc1cn[nH]c(=O)c1C(F)(F)F", "values": [
      {"measurement": "IC50", "result": "< 100", "unit": "nM"}
    ]}
  ]
}
